From US7053234B2 (Amgen Inc., priority 2000, dated 2006)
In brackets after ≈: the same amount, converted by molar mass. Where two headings read alike, the source gives them in different places.

Legend:
[1] = biological target: T1, Sigma^70 saturated E. coli RNA Polymerase (Escherichia coli, UniProt P0A8T7+P0A8V2); assay: RNA polymerase inhibition assay (E. coli enzyme); assay type: biochemical
T1 construct: purchased Epicenter
Experimental: The compounds of the present invention can be evaluated for antibacterial activity in a variety of assay formats known to those of skill in art. The specific assays used to select the most appropriate compound for use will typically depend on the targeted bacteria or infection. One common assay involves evaluation of the compounds as RNA polymerase inhibitors. In this assay, buffer (250 mM KCl, 5% Glycerol, 10 mM MgCl2, 0.1 mg/ml BSA) is combined with 6 mM B-M.E., PT5 DNA template, and 1.3 ug/rxn Sigma^70 saturated E. coli RNA Polymerase (Epicenter). The compound is then added in a manner not to exceed 5% DMSO. Nucleotide triphosphates are then added at the following concentration: 250 uM ATP, […] and UTP with 100 uM cold CTP and 50 uM alpha ^32P CTP. The mixture is incubated for 10 min at about 37° C. A [2×] loading buffer is added and the mixture is then run on a 6% urea denaturing PAGE until bromophenol blue reaches the edge of plate. The gel is soaked (about 20 minutes in 10% MeOH and 10% acetic acid, to remove urea), then dried (about 55 minutes at about 85° C. (BioRad Gel Drier)) and exposed to a Phospho Imaging Plate for 1 hour. The plate is then read on a Fujix Bas1000 Imaging System and quantified using MacBas v2.0 software. An IC50 (in uM) can be calculated as the concentration of a drug which reduces the enzyme activity to 50% of the control.

RNA-pol S. aureus = RNA-pol S. aureus (Staphylococcus aureus, UniProt P47768+Q2G0N5); assay: RNA polymerase inhibition assay (S. aureus enzyme); assay type: biochemical
S. aureus = assay: MIC determination, S. aureus; assay type: cell-based; conditions: Staphylococcus aureus
Experimental: The compound is added and two-fold dilutions are made. The final volume in the 96-well plate is about 100 uL. The plate is incubated at 37° C. in the dark with shaking. After 16 hours of incubation, growth is monitored by reading A600 or by visual inspection. […] Methods for dilution antimicrobial susceptibility tests for bacteria that grow aerobically. Approved standard M7-A3; National Committee for Clinical Laboratory Standards: Villanova, Pa.

E. coli (tolC) = assay: MIC determination, E. coli (tolC); assay type: cell-based; conditions: Escherichia coli
Experimental: (§1) For MIC determinations for selected bacteria, log phase growing bacteria are re-suspended at 1×10^5 bacteria per mL in LB medium. The compound is added and two-fold dilutions are made. The final volume in the 96-well plate is about 100 uL. The plate is incubated at 37° C. in the dark with shaking. After 16 hours of incubation, growth is monitored by reading A600 or by visual inspection. MIC is defined as the minimum concentration of drug resulting in inhibition of visible growth of bacterial under the conditions described (above) in National Committee for Clinical Laboratory Standards 1993. Methods for dilution antimicrobial susceptibility tests for bacteria that grow aerobically. Approved standard M7-A3; National Committee for Clinical Laboratory Standards: Villanova, Pa.

B. su = assay: MIC determination, B. su; assay type: cell-based; conditions: Table 1, 16 hours at 37° C. in LB medium, read-out: B. su (bacterial MIC)
Experimental: as §1

[2] = Table 2, read-out: RNA-pol IC50 (μM) E. coli
[3] = Table 2, read-out: MIC (μM) S. aureus
[4] = read-out: MIC (μM) E. coli (tolC)
[5] = Table 2, read-out: RNA-pol IC50 (μM) S. aureus
[6] = Table 1, enzyme not named, method uses E. coli RNA polymerase, read-out: IC50
[7] = Table 1, MIC, 16 hours at 37° C. in LB medium, read-out: S. au (bacterial MIC)
[8] = 16 h, read-out: E. c(tolC) (bacterial MIC)

Sequence of RNA-pol S. aureus (Q2G0N5 whole entry): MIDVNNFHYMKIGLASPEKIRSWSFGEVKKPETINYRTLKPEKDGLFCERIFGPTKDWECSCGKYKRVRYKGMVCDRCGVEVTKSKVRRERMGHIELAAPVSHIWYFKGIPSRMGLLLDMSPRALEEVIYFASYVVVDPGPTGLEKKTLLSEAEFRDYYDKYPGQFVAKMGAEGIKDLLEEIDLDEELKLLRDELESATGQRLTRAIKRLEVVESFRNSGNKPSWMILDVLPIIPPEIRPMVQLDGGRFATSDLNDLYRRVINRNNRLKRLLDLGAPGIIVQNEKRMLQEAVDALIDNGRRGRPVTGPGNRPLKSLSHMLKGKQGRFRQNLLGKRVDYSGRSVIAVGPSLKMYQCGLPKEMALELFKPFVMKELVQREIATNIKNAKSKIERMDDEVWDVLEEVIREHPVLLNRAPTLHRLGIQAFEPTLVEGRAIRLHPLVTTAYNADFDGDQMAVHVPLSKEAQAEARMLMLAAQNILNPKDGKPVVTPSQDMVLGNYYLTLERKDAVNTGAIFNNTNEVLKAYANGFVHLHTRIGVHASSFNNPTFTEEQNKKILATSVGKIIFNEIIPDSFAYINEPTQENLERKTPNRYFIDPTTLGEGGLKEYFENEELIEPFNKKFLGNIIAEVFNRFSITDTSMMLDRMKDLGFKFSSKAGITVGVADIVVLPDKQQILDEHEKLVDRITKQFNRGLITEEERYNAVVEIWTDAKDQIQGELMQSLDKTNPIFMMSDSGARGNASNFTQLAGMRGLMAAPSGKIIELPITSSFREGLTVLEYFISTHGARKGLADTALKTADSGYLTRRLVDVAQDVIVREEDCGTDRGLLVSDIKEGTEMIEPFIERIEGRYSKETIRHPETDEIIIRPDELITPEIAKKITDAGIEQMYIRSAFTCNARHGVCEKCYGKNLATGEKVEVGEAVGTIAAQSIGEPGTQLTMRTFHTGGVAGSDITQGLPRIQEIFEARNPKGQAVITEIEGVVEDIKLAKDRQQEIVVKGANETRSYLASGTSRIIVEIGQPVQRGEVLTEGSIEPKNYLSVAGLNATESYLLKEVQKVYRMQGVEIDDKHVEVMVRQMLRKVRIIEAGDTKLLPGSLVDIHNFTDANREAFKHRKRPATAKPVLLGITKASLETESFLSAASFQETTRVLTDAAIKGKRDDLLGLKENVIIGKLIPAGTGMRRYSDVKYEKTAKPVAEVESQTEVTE
Sequence of RNA-pol S. aureus (Q2FW32 whole entry, further chain): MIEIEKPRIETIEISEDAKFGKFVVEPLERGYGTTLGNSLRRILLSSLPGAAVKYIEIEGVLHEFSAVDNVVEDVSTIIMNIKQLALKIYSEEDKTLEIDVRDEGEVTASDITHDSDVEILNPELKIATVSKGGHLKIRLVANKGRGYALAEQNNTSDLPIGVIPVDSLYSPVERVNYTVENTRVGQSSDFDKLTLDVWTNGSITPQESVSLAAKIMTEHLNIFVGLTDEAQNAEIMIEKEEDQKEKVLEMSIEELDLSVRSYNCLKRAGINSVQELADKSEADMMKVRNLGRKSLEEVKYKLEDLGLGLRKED
Sequence of RNA-pol S. aureus (P47768 whole entry): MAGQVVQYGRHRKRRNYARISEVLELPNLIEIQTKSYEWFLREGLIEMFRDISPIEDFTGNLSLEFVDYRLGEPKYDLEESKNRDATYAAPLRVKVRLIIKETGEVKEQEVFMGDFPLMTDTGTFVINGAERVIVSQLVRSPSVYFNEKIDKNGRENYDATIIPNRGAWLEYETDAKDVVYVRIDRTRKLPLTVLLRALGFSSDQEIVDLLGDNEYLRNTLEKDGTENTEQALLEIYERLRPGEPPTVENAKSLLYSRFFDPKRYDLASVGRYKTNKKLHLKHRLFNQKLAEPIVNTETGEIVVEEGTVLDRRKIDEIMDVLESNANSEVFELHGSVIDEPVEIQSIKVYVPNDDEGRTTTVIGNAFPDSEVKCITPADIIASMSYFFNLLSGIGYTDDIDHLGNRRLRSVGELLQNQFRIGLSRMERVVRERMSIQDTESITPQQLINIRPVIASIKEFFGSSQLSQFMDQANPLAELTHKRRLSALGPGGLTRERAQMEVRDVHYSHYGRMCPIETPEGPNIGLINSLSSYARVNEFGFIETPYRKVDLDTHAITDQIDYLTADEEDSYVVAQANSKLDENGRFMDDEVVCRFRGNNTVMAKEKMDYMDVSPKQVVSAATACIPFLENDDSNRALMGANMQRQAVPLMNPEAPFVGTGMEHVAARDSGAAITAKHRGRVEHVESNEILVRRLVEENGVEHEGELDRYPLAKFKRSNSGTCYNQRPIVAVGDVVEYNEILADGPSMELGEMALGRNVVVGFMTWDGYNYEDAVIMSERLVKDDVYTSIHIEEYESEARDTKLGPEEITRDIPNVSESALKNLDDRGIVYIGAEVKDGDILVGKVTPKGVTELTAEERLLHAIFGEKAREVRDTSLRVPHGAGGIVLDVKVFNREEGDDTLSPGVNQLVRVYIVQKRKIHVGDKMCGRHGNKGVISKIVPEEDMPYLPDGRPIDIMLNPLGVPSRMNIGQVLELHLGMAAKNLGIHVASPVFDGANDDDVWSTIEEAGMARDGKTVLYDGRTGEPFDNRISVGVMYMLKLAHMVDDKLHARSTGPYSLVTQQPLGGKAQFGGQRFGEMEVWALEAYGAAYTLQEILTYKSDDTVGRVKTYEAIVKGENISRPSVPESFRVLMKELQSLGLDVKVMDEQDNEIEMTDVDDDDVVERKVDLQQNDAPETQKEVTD

SMILES | MIC (S. aureus; [3]) [µM] | MIC (E. coli (tolC); [4]) [µM] | IC50 (RNA-pol S. aureus; [5]) [µM] | also measured
ON=C1CCN(c2ccc(C(=NO)Nc3cccc(Cl)c3)cc2C(F)(F)F)C1 [Compound 109] | < 40 | < 40 | – | IC50 [1, 2]: 10 to 50 µM; IC50 (RNA-pol S. aureus): > 50 µM
CON=C1CCN(c2ccc(C(=NO)Nc3cccc(Cl)c3)cc2C(F)(F)F)C1 [Compound 110] | 40 to 125 (≈ 17.1 to 53.4 µg/mL) | > 125 | – | IC50 [1, 2]: > 50 µM; IC50 (RNA-pol S. aureus): > 50 µM
OCCNc1ccc(C(=NO)Nc2cccc(Cl)c2)cc1C(F)(F)F [Compound 111] | > 125 | < 40 | – | IC50 [1, 2]: 10 to 50 µM
ON=C(Nc1cccc(Cl)c1)c1ccc(NCCN2CCNCC2)c(C(F)(F)F)c1 [Compound 112] | > 125 | < 40 | – | IC50 [1, 2]: 10 to 50 µM; IC50 (RNA-pol S. aureus): > 50 µM
ON=C(Nc1cccc(Cl)c1)c1ccc(NCCc2ccc(O)cc2)c(C(F)(F)F)c1 [Compound 113] | < 40 | < 40 | – | IC50 [1, 2]: 10 to 50 µM
NS(=O)(=O)c1ccc(CCNc2ccc(C(=NO)Nc3cccc(Cl)c3)cc2C(F)(F)F)cc1 [Compound 114] | < 40 | < 40 | – | IC50 [1, 2]: < 10 µM; IC50 (RNA-pol S. aureus): > 50 µM
[N-]=[N+]=Nc1cc(/C(=N/O)Nc2cccc(Cl)c2)cc(C(F)(F)F)c1F [Compound 115] | < 40 | < 40 | > 50 | IC50 [1, 2]: > 50 µM
Nc1cc(/C(=N/O)Nc2cccc(Cl)c2)cc(C(F)(F)F)c1F [Compound 116] | < 40 | < 40 | > 50 | IC50 [1, 2]: < 10 µM
Nc1cc(NC(=O)Nc2ccc(Cl)c(C(F)(F)F)c2)cc(C(F)(F)F)c1 [Compound 118] | < 40 | < 40 | > 50 | –
C=CCOC(=O)Nc1cc(NC(=O)Nc2ccc(Cl)c(C(F)(F)F)c2)cc(C(F)(F)F)c1 [Compound 119] | < 40 | < 40 | – | –
O=C(CSc1ccccc1)Nc1cc(NC(=O)Nc2ccc(Cl)c(C(F)(F)F)c2)cc(C(F)(F)F)c1 [Compound 120] | < 40 | < 40 | 10 to 50 | IC50 [1, 2]: > 50 µM
O=C(COc1ccc(Cl)cc1)Nc1cc(NC(=O)Nc2ccc(Cl)c(C(F)(F)F)c2)cc(C(F)(F)F)c1 [Compound 121] | < 40 | > 125 | > 50 | –
O=C(Nc1cc(NS(=O)(=O)c2ccc(C(F)(F)F)cc2)cc(C(F)(F)F)c1)Nc1ccc(Cl)c(C(F)(F)F)c1 [Compound 122] | < 40 | > 125 | 10 to 50 | –
O=C(Nc1cc(N2CCCC2)cc(C(F)(F)F)c1)Nc1ccc(Cl)c(C(F)(F)F)c1 [Compound 123] | < 40 | > 125 | < 10 | –
COCC1CCCN1c1cc(NC(=O)Nc2ccc(Cl)c(C(F)(F)F)c2)cc(C(F)(F)F)c1 (centres unmarked) [Compound 124] | < 40 | > 125 | 10 to 50 | –
O=C(Nc1cc(N2CCOCC2)cc(C(F)(F)F)c1)Nc1ccc(Cl)c(C(F)(F)F)c1 [Compound 125] | < 40 | < 40 | 10 to 50 | –
O=C(Nc1cc(N2CCOC2=O)cc(C(F)(F)F)c1)Nc1ccc(Cl)c(C(F)(F)F)c1 [Compound 126] | > 125 | < 40 | < 10 | –
O=C(Nc1cc(N2CCNC2=O)cc(C(F)(F)F)c1)Nc1ccc(Cl)c(C(F)(F)F)c1 [Compound 127] | > 125 | > 125 | 10 to 50 | –
COc1cc(NC(=O)CNc2ccc(Cl)c(C(F)(F)F)c2)cc(C(F)(F)F)c1 [Compound 128] | < 40 | < 40 | > 50 | –

SMILES | MIC (S. aureus; [3]) [µM] | MIC (E. coli (tolC); [4]) [µM] | IC50 (RNA-pol S. aureus; [5]) [µM] | also measured
COCC1CCCN1c1cc(NC(=O)CNc2ccc(Cl)c(C(F)(F)F)c2)cc(C(F)(F)F)c1 (centres unmarked) [Compound 129] | < 40 | > 125 | > 50 | –
O=C(CNc1ccc(Cl)c(C(F)(F)F)c1)Nc1cc(NC(=O)COc2ccc(Cl)cc2)cc(C(F)(F)F)c1 [Compound 130] | < 40 | > 125 | > 50 | –
O=C(COc1ccc(Cl)cc1)Nc1cc(NCCNc2nc3cc(Cl)c(Cl)cc3[nH]2)cc(C(F)(F)F)c1 [Compound 131] | < 40 | > 125 | < 10 | –
COCOc1cc(NC(=O)Nc2ccc(Cl)c(C(F)(F)F)c2)cc(C(F)(F)F)c1 [Compound 132, 1-(4-Chloro-3-trifluoromethyl-phenyl)-3-(3-methoxymethoxy-5-trifluoromethyl-phenyl)-urea] | < 40 | < 40 | 10 to 50 | –
O=C(Nc1cc(O)cc(C(F)(F)F)c1)Nc1ccc(Cl)c(C(F)(F)F)c1 [Compound 133, 1-(4-Chloro-3-trifluoromethyl-phenyl)-3-(3-hydroxy-5-trifluoromethyl-phenyl)-urea] | < 40 | < 40 | 10 to 50 | –
C=CCOc1cc(NC(=O)Nc2ccc(Cl)c(C(F)(F)F)c2)cc(C(F)(F)F)c1 [Compound 134] | – | > 125 | < 10 | MIC (S. aureus; read-out: MIC (μM) S. aureus): < 40 µM
O=C(Nc1cc(OCc2cccc(Cl)c2)cc(C(F)(F)F)c1)Nc1ccc(Cl)c(C(F)(F)F)c1 [Compound 135] | – | > 125 | 10 to 50 | –
O=C(CNc1ccc(N2CCCCC2)c(C(F)(F)F)c1)Nc1cc(COc2cccc(Cl)c2)cc(C(F)(F)F)c1 [Compound 136, N-[3-(3-Chloro-phenoxymethyl)-5-trifluoromethyl-phenyl]-2-(4-piperidin-1-yl-3-trifluoromethyl-phenylamino)-acetamide] | < 40 | > 125 | < 10 | –
O=C(Nc1ccc(Cl)c(C(F)(F)F)c1)OCc1cc(-n2cccc2)cc(C(F)(F)F)c1 [Compound 137] | < 40 | < 40 | 10 to 50 | –
O=C(CSc1ccccc1)Nc1cc(COC(=O)Nc2ccc(Cl)c(C(F)(F)F)c2)cc(C(F)(F)F)c1 [Compound 139, (4-Chloro-3-trifluoromethyl-phenyl)-carbamic acid 3-(2-phenylsulfanyl-acetylamino)-5-trifluoromethyl benzyl ester] | < 40 | < 40 | 10 to 50 | –
O=C(CNc1cccc(Cl)c1)Nc1cc(NC(=O)CNc2cccc(Cl)c2)cc(C(F)(F)F)c1 [Compound 140, 2-(3-Chloro-phenylamino)-N-{3-[2-(3-chloro-phenylamino)-acetylamino]-5-trifluoromethyl-phenyl}acetamide] | < 40 | > 125 | – | –
O=[N+]([O-])c1cc(C(=NO)Nc2ccccc2)ccc1Cl [Example 15] | – | – | – | IC50 [1, 6]: 10 to 50 µM; MIC (B. su): > 125 µM; MIC (S. aureus; [7]): > 125 µM; MIC (E. coli (tolC); [8]): > 125 µM
ON=C(Nc1ccccc1)c1ccc(F)c(C(F)(F)F)c1 [Example 16] | – | – | – | IC50 [1, 6]: 10 to 50 µM; MIC (B. su): 40 to 125 µM (≈ 11.9 to 37.3 µg/mL); MIC (S. aureus; [7]): > 125 µM; MIC (E. coli (tolC); [8]): < 40 µM
ON=C(Nc1cccc(Cl)c1)c1ccc(Cl)c(C(F)(F)F)c1 [Example 64] | – | – | – | IC50 [1, 6]: < 10 µM; MIC (B. su): < 40 µM; MIC (S. aureus; [7]): < 40 µM; MIC (E. coli (tolC); [8]): < 40 µM
ON=C(Nc1ccccc1)c1ccc(Cl)c(C(F)(F)F)c1 [Example 65] | – | – | – | IC50 [1, 6]: < 10 µM; MIC (B. su): 40 to 125 µM (≈ 12.6 to 39.3 µg/mL); MIC (S. aureus; [7]): < 40 µM; MIC (E. coli (tolC); [8]): < 40 µM
ON=C(Nc1ccccc1)c1cc(C(F)(F)F)cc(C(F)(F)F)c1 [R′=3-CF3, R″=5-CF3, R′″=H] | – | – | – | IC50 [1, 6]: > 50 µM; MIC (B. su): 40 to 125 µM (≈ 13.9 to 43.5 µg/mL); MIC (S. aureus; [7]): 40 to 125 µM (≈ 13.9 to 43.5 µg/mL); MIC (E. coli (tolC); [8]): < 40 µM
ON=C(Nc1cccc(Br)c1)c1cccc(C(F)(F)F)c1 [R′=3-CF3, R″=H, R′″=3-Br] | – | – | – | IC50 [1, 6]: 10 to 50 µM; MIC (B. su): < 40 µM; MIC (S. aureus; [7]): 40 to 125 µM (≈ 14.4 to 44.9 µg/mL); MIC (E. coli (tolC); [8]): < 40 µM
N#Cc1cccc(NC(=NO)c2cccc(C(F)(F)F)c2)c1 [R′=3-CF3, R″=H, R′″=3-CN] | – | – | – | IC50 [1, 6]: > 50 µM; MIC (B. su): > 125 µM; MIC (S. aureus; [7]): > 125 µM; MIC (E. coli (tolC); [8]): 40 to 125 µM (≈ 12.2 to 38.2 µg/mL)
